Source: ChEMBL document CHEMBL4270577, “Synthesis, anticancer activity and molecular modeling studies of 1,2,4-triazole derivatives as EGFR inhibitors” (Eur J Med Chem, 2018)

Key:
Assay type in all cases: functional
OVCAR-5 = assay: Growth inhibition of human OVCAR5 cells at 10 uM incubated for 48 hrs by sulforhodamine B assay relative to control; conditions: OVCAR-5, 48 h, read-out: GI
HL-60(TB) = assay: Cytotoxicity against human HL-60(TB) cells incubated for 48 hrs by sulforhodamine B assay; conditions: HL-60, 48 h
RPMI-8226 = assay: Cytotoxicity against human RPMI8226 cells incubated for 48 hrs by sulforhodamine B assay; conditions: RPMI-8226, 48 h
NCI-H226 = assay: Cytotoxicity against human NCI-H226 cells incubated for 48 hrs by sulforhodamine B assay; conditions: NCI-H226, 48 h
NCI-H322M = assay: Cytotoxicity against human NCI-H322M cells incubated for 48 hrs by sulforhodamine B assay
NCI-H460 = assay: Cytotoxicity against human NCI-H460 cells incubated for 48 hrs by sulforhodamine B assay; conditions: NCI-H460, 48 h
NCI-H522 = assay: Cytotoxicity against human NCI-H522 cells incubated for 48 hrs by sulforhodamine B assay; conditions: NCI-H522, 48 h
HCC 2998 = assay: Cytotoxicity against human HCC2998 cells incubated for 48 hrs by sulforhodamine B assay; conditions: HCC 2998, 48 h
SW-620 = assay: Cytotoxicity against human SW620 cells incubated for 48 hrs by sulforhodamine B assay; conditions: SW-620, 48 h
SF-539 = assay: Cytotoxicity against human SF539 cells incubated for 48 hrs by sulforhodamine B assay; conditions: SF-539, 48 h
SNB-19 = assay: Cytotoxicity against human SNB19 cells incubated for 48 hrs by sulforhodamine B assay; conditions: SNB-19, 48 h
SNB-75 = assay: Cytotoxicity against human SNB75 cells incubated for 48 hrs by sulforhodamine B assay; conditions: SNB-75, 48 h
LOX IMVI = assay: Cytotoxicity against human LOXIMVI cells incubated for 48 hrs by sulforhodamine B assay
M14 = assay: Cytotoxicity against human M14 cells incubated for 48 hrs by sulforhodamine B assay; conditions: M14, 48 h
SK-MEL-2 = assay: Cytotoxicity against human SK-MEL-2 cells incubated for 48 hrs by sulforhodamine B assay; conditions: SK-MEL-2, 48 h
SK-MEL-28 = assay: Cytotoxicity against human SK-MEL-28 cells incubated for 48 hrs by sulforhodamine B assay; conditions: SK-MEL-28, 48 h
SK-MEL-5 = assay: Cytotoxicity against human SK-MEL-5 cells incubated for 48 hrs by sulforhodamine B assay; conditions: SK-MEL-5, 48 h
UACC-257 = assay: Cytotoxicity against human UACC257 cells incubated for 48 hrs by sulforhodamine B assay; conditions: UACC-257, 48 h
IGROV-1 = assay: Cytotoxicity against human IGROV1 cells incubated for 48 hrs by sulforhodamine B assay; conditions: IGROV-1, 48 h
OVCAR-3 = assay: Cytotoxicity against human OVCAR3 cells incubated for 48 hrs by sulforhodamine B assay; conditions: OVCAR-3, 48 h
ACHN = assay: Cytotoxicity against human ACHN cells incubated for 48 hrs by sulforhodamine B assay
CAKI-1 = assay: Cytotoxicity against human Caki1 cells incubated for 48 hrs by sulforhodamine B assay; conditions: CAKI-1, 48 h
TK-10 = assay: Cytotoxicity against human TK10 cells incubated for 48 hrs by sulforhodamine B assay; conditions: TK-10, 48 h
UO-31 = assay: Cytotoxicity against human UO31 cells incubated for 48 hrs by sulforhodamine B assay; conditions: UO-31, 48 h
MCF7 = assay: Cytotoxicity against human MCF7 cells incubated for 48 hrs by sulforhodamine B assay; conditions: MCF7, 48 h
Hs-578T = assay: Cytotoxicity against human Hs 578T cells incubated for 48 hrs by sulforhodamine B assay
BT-549 = assay: Cytotoxicity against human BT549 cells incubated for 48 hrs by sulforhodamine B assay; conditions: BT-549, 48 h
T47D = assay: Cytotoxicity against human T47D cells incubated for 48 hrs by sulforhodamine B assay
MDA-MB-468 = assay: Cytotoxicity against human MDA-MB-468 cells incubated for 48 hrs by sulforhodamine B assay; conditions: MDA-MB-468, 48 h
A549 [1] = assay: Induction of apoptosis in human A549 cells assessed as early apoptotic cells at 1.4 uM after 24 hrs by Annexin V/propidium iodide staining based flow cytometric analysis (reference value: 0.22%)
A549 [2] = assay: Induction of apoptosis in human A549 cells assessed as necrotic cells at 1.4 uM after 24 hrs by Annexin V/propidium iodide staining based flow cytometric analysis (reference value: 0.09%)
A549 [3] = assay: Induction of apoptosis in human A549 cells assessed as viable cells at 1.4 uM after 24 hrs by Annexin V/propidium iodide staining based flow cytometric analysis (reference value: 98.03%); conditions: A549, 24 h, read-out: Activity
[4] = read-out: LC50 (the source's name)

Work on `COc1ccc(-c2nc3sc(-c4ccc(Cl)cc4)cn3n2)cc1` yielded an inhibition of growth at 10 µM (OVCAR-5) of 48%, a GI50 (HL-60(TB)) of over 50 µM and a TGI (HL-60(TB)) of over 50 µM. It also gave a CC50 (HL-60(TB); [4]) of over 50 µM, a GI50 (RPMI-8226) of 3.67 µM and a TGI (RPMI-8226) of over 50 µM. It also gave a CC50 (RPMI-8226; [4]) of over 50 µM, a GI50 (NCI-H226) of 11.1 µM and a TGI (NCI-H226) of over 50 µM. The CC50 (NCI-H226; [4]) was over 50 µM, the GI50 (NCI-H322M) was 1.76 µM and the TGI (NCI-H322M) was over 50 µM. For the same compound, the CC50 (NCI-H322M; [4]) was over 50 µM, the GI50 (NCI-H460) was 1.33 µM and the TGI (NCI-H460) was 4 µM. It also gave a CC50 (NCI-H460; [4]) of 18.9 µM, a GI50 (NCI-H522) of 14.9 µM and a TGI (NCI-H522) of over 50 µM. For the same compound, the CC50 (NCI-H522; [4]) was over 50 µM, the GI50 (HCC 2998) was over 50 µM and the TGI (HCC 2998) was over 50 µM. The CC50 (HCC 2998; [4]) was 39.4 µM, the GI50 (SW-620) was 5.51 µM and the TGI (SW-620) was over 50 µM. For the same compound, the CC50 (SW-620; [4]) was over 50 µM, the GI50 (SF-539) was 1.85 µM and the TGI (SF-539) was 21.5 µM. The CC50 (SF-539; [4]) was over 50 µM, the GI50 (SNB-19) was 2.47 µM and the TGI (SNB-19) was over 50 µM. For the same compound, the CC50 (SNB-19; [4]) was over 50 µM, the GI50 (SNB-75) was 1.61 µM and the TGI (SNB-75) was 6.85 µM. It also gave a CC50 (SNB-75; [4]) of 23.3 µM, a GI50 (LOX IMVI) of over 50 µM and a TGI (LOX IMVI) of over 50 µM. It also gave a CC50 (LOX IMVI; [4]) of over 50 µM, a GI50 (M14) of over 50 µM and a TGI (M14) of over 50 µM. It also gave a CC50 (M14; [4]) of over 50 µM, a GI50 (SK-MEL-2) of over 50 µM and a TGI (SK-MEL-2) of over 50 µM. The CC50 (SK-MEL-2; [4]) was over 50 µM, the GI50 (SK-MEL-28) was over 50 µM and the TGI (SK-MEL-28) was over 50 µM. For the same compound, the CC50 (SK-MEL-28; [4]) was over 50 µM, the GI50 (SK-MEL-5) was 14 µM and the TGI (SK-MEL-5) was over 50 µM. It also gave a CC50 (SK-MEL-5; [4]) of over 50 µM, a GI50 (UACC-257) of over 50 µM and a TGI (UACC-257) of over 50 µM. It also gave a CC50 (UACC-257; [4]) of over 50 µM, a GI50 (IGROV-1) of 1.15 µM and a TGI (IGROV-1) of 8.13 µM. For the same compound, the CC50 (IGROV-1; [4]) was over 50 µM, the GI50 (OVCAR-3) was 1.72 µM and the TGI (OVCAR-3) was 7.2 µM. The CC50 (OVCAR-3; [4]) was over 50 µM, the GI50 (ACHN) was 0.927 µM and the TGI (ACHN) was 2.02 µM. For the same compound, the CC50 (ACHN; [4]) was 4.41 µM, the GI50 (CAKI-1) was 1.79 µM and the TGI (CAKI-1) was 8.92 µM. It also gave a CC50 (CAKI-1; [4]) of 48.9 µM, a GI50 (TK-10) of 2.01 µM and a TGI (TK-10) of 5.62 µM. The CC50 (TK-10; [4]) was 34.8 µM, the GI50 (UO-31) was 1.19 µM and the TGI (UO-31) was 4.51 µM. It also gave a CC50 (UO-31; [4]) of 30.6 µM, a GI50 (MCF7) of 2.62 µM and a TGI (MCF7) of over 50 µM. The CC50 (MCF7; [4]) was over 50 µM, the GI50 (Hs-578T) was 2.31 µM and the TGI (Hs-578T) was over 50 µM. For the same compound, the CC50 (Hs-578T; [4]) was over 50 µM, the GI50 (BT-549) was 43.2 µM and the TGI (BT-549) was over 50 µM. It also gave a CC50 (BT-549; [4]) of over 50 µM, a GI50 (T47D) of 3.54 µM and a TGI (T47D) of over 50 µM. It also gave a CC50 (T47D; [4]) of over 50 µM, a GI50 (MDA-MB-468) of 2.08 µM and a TGI (MDA-MB-468) of over 50 µM. For the same compound, the CC50 (MDA-MB-468; [4]) was over 50 µM, the Activity (A549 [1]) was 4.23% and the Activity (A549 [2]) was 1.34%. For the same compound, the viability at 1.4 µM (A549 [3]) was 88%.
